Target: T1, Delta-5-Desaturase (D5D), membrane preparations of D5D-overexpressing HEK293 6E cells (Homo sapiens, UniProt O60427)
T1 construct: expressed in transfected cells; host or cells: HEK293 6E cells (membrane preparation)
Assay: In vitro measurement of Delta-5-Desaturase inhibitory activity using DGLA-CoA and Arachidonyl-CoA mass spectrometric assays
Type: biochemical
Conditions: D5D membrane 10 μg/mL, one-hour incubation, average of at least two independent runs
Protocol: In Vitro Measurement of Delta-5-Desaturase Inhibitory Activity Using DGLA-CoA and Arachidonyl-CoA Mass Spectrometric Assays Membrane preparations of D5D-overexpressing HEK293 6E cells were prepared in which the total protein concentration was 5.6 mg/mL. Stock D5D membrane preparations were diluted in D5D assay buffer (25 mM 2-amino-2-(hydroxymethyl)-1,3-propanediol, pH 7.5 containing 10 mM MgCl2, 1 mM octyl glucoside (SigmaAldrich O-8001), 1 mM tris(2-carboxyethyl)phosphine hydrochloride (SigmaAldrich 646547)) to a final D5D membrane concentration of 10 μg/mL in an assay plate containing serially diluted test compounds. To 15 μL of this D5D preparation was added 15 μL of a substrate solution (0.25 mM NADH (nicotinamide adenine dinucleotide, Roche Diag. 10107735001), 0.25 mM adenosine triphosphate (SigmaAldrich A-3377), 0.05 mM coenzyme A hydrate (SigmaAldrich C-4282), and 0.01 mM DGLA (dihomo-g-linolenic acid, Sigma E-4504) in the same D5D assay buffer. After one-hour incubation at ambient temperature acetonitrile (30 μL) was added to quench the reaction and plates were centrifuged for 10 min @ 3,000 rpm. Mass spectrometric analysis involved a Rapidfire 360 SPE system coupled to an ABSciex API4000 Triple Quadrupole mass spectrometer using a C18 SPE cartridge (G9203-80105) with ionization in negative mode (solvent A=100% water; solvent B=100% acetonitrile, each solvent containing 5 mM ammonium acetate). DGLA-CoA and Arachidonyl-CoA were detected by multiple reaction monitoring (MRM) of the doubly charged parent ions at m/z 526.6 and 525.6, respectively. […] Sx is value from unknown sample, So is value from DMSO alone and Sc is value from no enzyme well. For CRC analysis, the % of inhibitions were analysed with 4 Parameter Logistic Model or Sigmoidal Dose-Response Model using XLfit (IDBS, Guilford, UK). The potency of the test item was expressed as IC50 nM, corresponding to the test item concentration able to inhibit the 50% of the enzyme maximal response. IC50 values were averaged values determined by at least two independent runs. The results presented in Table 15 have been generated with the in vitro assay described above. This assay may be used to test any of the compounds described herein to assess and characterize a compound's ability to inhibit D5D.

T1 sequence (O60427 whole entry, species assumed): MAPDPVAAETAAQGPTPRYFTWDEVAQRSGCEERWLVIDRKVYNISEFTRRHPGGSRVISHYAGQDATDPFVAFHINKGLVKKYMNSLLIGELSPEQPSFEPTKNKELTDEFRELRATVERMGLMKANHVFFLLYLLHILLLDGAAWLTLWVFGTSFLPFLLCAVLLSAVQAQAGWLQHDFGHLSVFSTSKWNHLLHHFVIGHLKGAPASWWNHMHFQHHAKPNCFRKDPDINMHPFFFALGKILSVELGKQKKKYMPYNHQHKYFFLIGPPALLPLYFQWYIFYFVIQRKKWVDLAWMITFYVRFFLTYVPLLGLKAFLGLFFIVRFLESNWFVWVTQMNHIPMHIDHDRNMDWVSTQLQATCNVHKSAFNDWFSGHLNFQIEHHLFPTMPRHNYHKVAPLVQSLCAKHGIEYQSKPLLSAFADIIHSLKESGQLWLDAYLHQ

| SMILES | IC50 [nM] |
| --- | --- |
| Cc1nn2c(=O)c(-c3cnn(CC4CC4(F)F)c3)c(C(F)(F)F)nc2s1 (stereo not drawn) [Example 23, 6-{1-[(2,2-difluorocyclopropyl)methyl]-1H-pyrazol-4-yl}-2-methyl-7-(trifluoromethyl)-5H-[1,3,4]thiadiazolo[3,2-a]pyrimidin-5-one] | 158 |
| CC1Cn2c(nc(C(F)(F)F)c(-c3cnn(CC(F)(F)C(F)(F)F)c3)c2=O)S1 (stereo not drawn) [Example 24, 2-methyl-6-[1-(2,2,3,3,3-pentafluoropropyl)-1H-pyrazol-4-yl]-7-(trifluoromethyl)-2H,3H,5H-[1,3]thiazolo[3,2-a]pyrimidin-5-one] | 168 |
| Cc1nn2c(=O)c(-c3cnn(CC4CC(F)(F)C4)c3)c(C(F)(F)F)nc2s1 [Example 26, 6-{1-[(3,3-difluorocyclobutyl)methyl]-1H-pyrazol-4-yl}-2-methyl-7-(trifluoromethyl)-5H-[1,3,4]thiadiazolo[3,2-a]pyrimidin-5-one] | 104 |
| Cn1ncn2c(=O)c(-c3cnn(CC(F)(F)C(F)(F)F)c3)c(C(F)(F)F)nc12 [Example 27, 1-methyl-6-[1-(2,2,3,3,3-pentafluoropropyl)-1H-pyrazol-4-yl]-7-(trifluoromethyl)-1H,5H-[1,2,4]triazolo[4,3-a]pyrimidin-5-one] | 2.6 |
| Cn1nnn2c(=O)c(-c3cnn(CC(F)(F)C(F)(F)F)c3)c(C(F)(F)F)nc12 [Example 28, 3-methyl-6-[1-(2,2,3,3,3-pentafluoropropyl)-1H-pyrazol-4-yl]-5-(trifluoromethyl)-3H,7H-[1,2,3,4]tetrazolo[1,5-a]pyrimidin-7-one] | 6 |
| Cc1nn2c(=O)c(-c3cnn(CC4COC4)c3)c(C(F)(F)F)nc2s1 [Example 29, 2-methyl-6-{1-[(oxetan-3-yl)methyl]-1H-pyrazol-4-yl}-7-(trifluoromethyl)-5H-[1,3,4]thiadiazolo[3,2-a]pyrimidin-5-one] | 1580 |
| O=c1c(-c2ccc(OCC(F)(F)F)cc2)c(C(F)(F)F)nc2sccn12 [Example 31, 6-[4-(2,2,2-trifluoroethoxy)phenyl]-7-(trifluoromethyl)-5H-[1,3]thiazolo[3,2-a]pyrimidin-5-one] | 2.3 |
| O=c1c(-c2cnn(CC(F)(F)C(F)(F)F)c2)c(C(F)(F)F)nc2sc(CO)cn12 [Example 32, 2-(hydroxymethyl)-6-[1-(2,2,3,3,3-pentafluoropropyl)-1H-pyrazol-4-yl]-7-(trifluoromethyl)-5H-[1,3]thiazolo[3,2-a]pyrimidin-5-one] | 45.6 |
| CC(C)N1C(=O)Cn2c1nc(C(F)(F)F)c(-c1cnn(CC(F)(F)C(F)(F)F)c1)c2=O [Example 35, 6-[1-(2,2,3,3,3-pentafluoropropyl)-1H-pyrazol-4-yl]-1-(propan-2-yl)-7-(trifluoromethyl)-1H,2H,3H,5H-imidazo[1,2-a]pyrimidine-2,5-dione] | 118 |
| CN1C(=O)C(C)(C)n2c1nc(C(F)(F)F)c(-c1cnn(CC(F)(F)C(F)(F)F)c1)c2=O [Example 36, 1,3,3-trimethyl-6-[1-(2,2,3,3,3-pentafluoropropyl)-1H-pyrazol-4-yl]-7-(trifluoromethyl)-1H,2H,3H,5H-imidazo[1,2-a]pyrimidine-2,5-dione] | > 67000 |
| Cn1ccn2c(=O)c(-c3cnn(CC(F)(F)C(F)(F)F)c3)c(C(F)(F)F)nc12 [Example 37, 1-methyl-6-[1-(2,2,3,3,3-pentafluoropropyl)-1H-pyrazol-4-yl]-7-(trifluoromethyl)-1H,5H-imidazo[1,2-a]pyrimidin-5-one] | 11.5 |
| Cn1cnn2c(=O)c(-c3cnn(CC(F)(F)C(F)(F)F)c3)c(C(F)(F)F)nc12 [Example 38, 3-methyl-6-[1-(2,2,3,3,3-pentafluoropropyl)-1H-pyrazol-4-yl]-5-(trifluoromethyl)-3H,7H-[1,2,4]triazolo[1,5-a]pyrimidin-7-one] | 67.3 |
| Cc1nn2c(=O)c(-c3ccc(OCC(F)(F)F)cc3)c(C(F)(F)F)nc2s1 [Example 40, 2-methyl-6-[4-(2,2,2-trifluoroethoxy)phenyl]-7-(trifluoromethyl)-5H-[1,3,4]thiadiazolo[3,2-a]pyrimidin-5-one] | 224 |
| CCOc1nc2sc(C)nn2c(=O)c1-c1cnn(CC(F)(F)C(F)(F)F)c1 [Example 41, 7-ethoxy-2-methyl-6-[1-(2,2,3,3,3-pentafluoropropyl)-1H-pyrazol-4-yl]-5H-[1,3,4]thiadiazolo[3,2-a]pyrimidin-5-one] | 877 |
| COCc1nn2c(=O)c(-c3cnn(CC(F)(F)C(F)(F)F)c3)c(C(F)(F)F)nc2s1 [Example 42, 2-(methoxymethyl)-6-[1-(2,2,3,3,3-pentafluoropropyl)-1H-pyrazol-4-yl]-7-(trifluoromethyl)-5H-[1,3,4]thiadiazolo[3,2-a]pyrimidin-5-one] | 27.4 |
| O=c1c(-c2cnn(CCC(F)(F)F)c2)c(C(F)(F)F)nc2sc(CO)nn12 [Example 46, 2-(hydroxymethyl)-7-(trifluoromethyl)-6-[1-(3,3,3-trifluoropropyl)-1H-pyrazol-4-yl]-5H-[1,3,4]thiadiazolo[3,2-a]pyrimidin-5-one] | 36.1 |
| O=C1Cn2c(nc(C(F)(F)F)c(-c3cnn(CC(F)(F)C(F)(F)F)c3)c2=O)N1 [Example 47, 6-[1-(2,2,3,3,3-pentafluoropropyl)-1H-pyrazol-4-yl]-7-(trifluoromethyl)-1H,2H,3H,5H-imidazo[1,2-a]pyrimidine-2,5-dione] | 4950 |
| Cn1c(C2CC2)cn2c(=O)c(-c3cnn(CC(F)(F)C(F)(F)F)c3)c(C(F)(F)F)nc12 [Example 50, 2-cyclopropyl-1-methyl-6-[1-(2,2,3,3,3-pentafluoropropyl)-1H-pyrazol-4-yl]-7-(trifluoromethyl)-1H,5H-imidazo[1,2-a]pyrimidin-5-one] | 120 |
| Cn1c(Cl)cn2c(=O)c(-c3cnn(CCC(F)(F)F)c3)c(C(F)(F)F)nc12 [Example 51, 2-chloro-1-methyl-7-(trifluoromethyl)-6-[1-(3,3,3-trifluoropropyl)-1H-pyrazol-4-yl]-1H,5H-imidazo[1,2-a]pyrimidin-5-one] | 36.8 |

Next, values leading:

| IC50 [nM] | SMILES |
| --- | --- |
| 354 | O=c1c(-c2cnn(CC(F)(F)C(F)(F)F)c2)c(C(F)(F)F)nc2n1CC1CC21 (stereo not drawn) [Example 25, 8-[1-(2,2,3,3,3-pentafluoropropyl)-1H-pyrazol-4-yl]-9-(trifluoromethyl)-6,10-diazatricyclo[4.4.0.0^2,4]deca-1(10),8-dien-7-one] |
| 17900 | Cc1nn2c(=O)c(-c3ccn(CC(F)(F)C(F)(F)F)n3)c(C(F)(F)F)nc2s1 [Example 30, 2-methyl-6-[1-(2,2,3,3,3-pentafluoropropyl)-1H-pyrazol-3-yl]-7-(trifluoromethyl)-5H-[1,3,4]thiadiazolo[3,2-a]pyrimidin-5-one] |
| 0.9 | O=c1c(-c2ccc(OCC(F)(F)F)cc2)c(C(F)(F)F)nc2sc(CO)cn12 [Example 33, 2-(hydroxymethyl)-6-[4-(2,2,2-trifluoroethoxy)phenyl]-7-(trifluoromethyl)-5H-[1,3]thiazolo[3,2-a]pyrimidin-5-one] |
| 4.8 | O=c1c(-c2ccc(OCC(F)(F)F)cc2)c(C(F)(F)F)nc2sc(Cl)cn12 [Example 34, 2-chloro-6-[4-(2,2,2-trifluoroethoxy)phenyl]-7-(trifluoromethyl)-5H-[1,3]thiazolo[3,2-a]pyrimidin-5-one] |
| 18.8 | Cc1cn2c(=O)c(-c3cnn(CC(F)(F)C(F)(F)F)c3)c(C(F)(F)F)nc2o1 [Example 39, 2-methyl-6-[1-(2,2,3,3,3-pentafluoropropyl)-1H-pyrazol-4-yl]-7-(trifluoromethyl)-5H-[1,3]oxazolo[3,2-a]pyrimidin-5-one] |
| 34 | COc1nn2c(=O)c(-c3cnn(CC(F)(F)C(F)(F)F)c3)c(C(F)(F)F)nc2s1 [Example 43, 2-methoxy-6-[1-(2,2,3,3,3-pentafluoropropyl)-1H-pyrazol-4-yl]-7-(trifluoromethyl)-5H-[1,3,4]thiadiazolo[3,2-a]pyrimidin-5-one] |
| 3210 | Cn1cc(Cl)n2c(=O)c(-c3cnn(CC(F)(F)C(F)(F)F)c3)c(C(F)(F)F)nc12 [Example 44, 3-chloro-1-methyl-6-[1-(2,2,3,3,3-pentafluoropropyl)-1H-pyrazol-4-yl]-7-(trifluoromethyl)-1H,5H-imidazo[1,2-a]pyrimidin-5-one] |
| 331 | O=c1c(-c2cnn(CC(F)(F)C(F)(F)F)c2)c(C(F)(F)F)nc2[nH]c(Cl)cn12 [Example 49, 2-chloro-6-[1-(2,2,3,3,3-pentafluoropropyl)-1H-pyrazol-4-yl]-7-(trifluoromethyl)-1H,5H-imidazo[1,2-a]pyrimidin-5-one] |

— patent US11512097B2, “Heterocyclic compounds as Delta-5 desaturase inhibitors and methods of use” (Amgen Inc., priority 2019, dated 2022)
